We go through 3 compounds from paper PMC12036197, “Green synthesis of PEGylated iron oxide nanoparticles of Eriobotrya japonica leaves extract in combination with B3, against Plasmodium falciparum 3D7 strain” (Tropical Medicine and Health, 2025).

In one data set the test system is red blood cells. Nature of the data set: Hemolytic test. In kind it is cell-based, human. The conditions noted are these: 3 h incubation. How it is done:
To conduct the hemolytic test on the hydroalcoholic extract of […], nicotinamide, and green-synthesized nanoparticles, 5 mL of fresh whole blood with heparin anticoagulant was obtained from a healthy volunteer. After centrifugation and washing with PBS, 1% blood suspension was prepared. In each well of three microplates, 100 µL of the prepared blood was added. Subsequently, 100 µL of the hydroalcoholic extract, nicotinamide, and green-synthesized nanoparticles with concentrations of 0.1, 1, 10, 50, 100 and 200 µg/mL, were added into the second to seventh wells of all three microplates, respectively. The first wells served as negative controls, containing an equal volume of PBS, while the eighth wells were positive controls, containing 100 µL of Triton X-100. After 3 h of incubation and centrifugation, the optical absorbance of the supernatant was measured at a wavelength of 540 nm. The percentage of drug-induced hemolysis was calculated using the following formula [28]: Percenthemolysis%=ODtest-ODnegativecontrol/ODpositivecontrol-ODnegativecontrol×100.
Investigating the hemolytic effect of Eriobotrya japonica hydroalcoholic extract (herbal extract), nicotinamide (NAM), and PEGylated green synthesized iron oxide nanoparticles (HNPs) on red blood cells at concentrations of 0.1, 1, 10, 50, 100 and 200 µg/mL were evaluated (Table 3). The optical absorbance of PBS was measured as negative control 0.01 and the optical absorbance of Triton X-100 was measured as positive control 1.00 (Fig. 5).

For data set [1], the system named is Plasmodium falciparum 3D7. Nature of the data set: Growth inhibition of Plasmodium falciparum 3D7 in RPMI 1640 culture medium, single drugs. In kind it is cell-based. The conditions noted are these: for Growth inhibition rate: highest growth inhibition, RPMI 1640, 24 h.
Description: Plates with a capacity of 4 ml or T25 culture flasks were employed for the cultivation of parasites. CCM culture medium and blood (to sustain a hematocrit of 10% within the culture medium for the proliferation and replication of the parasite) were supplemented into the dishes. […] Parasites were multiplied in a CCM medium containing 10% hematocrit with O + human erythrocyte and albumax (0.5%) serving as a growth factor. The culture plates were incubated at 37 °c in a candle jar, with the fresh medium being replenished every 48 h. A thin blood smear was prepared from the sediment collected from each plate, followed by the quantification of parasites on 10,000 red blood cells.
To investigate the effect of drugs on the culture medium, two stages were conducted. The effect of the drug was performed when 80% of the parasites were in the ring stage and the parasitemia was 6%. […] In the first step, the drugs were treated separately and their IC50 was measured. For plant extract, dilutions of 100, 200, 400 and 800 µg/mL (dry extract) of culture medium were done in 12 wells of a 96-well plate (in triplicate).
For polyethylene glycol, dilutions of 10, 100, 1000 and 10000 µg/mL of culture medium were done in 12 wells of a 96-well plate (in triplicate). For the nanoparticle produced by the PEGylated green synthesis method (PEG-HNPs) dilutions of 50, 100, 200, and 400 µg/mL culture medium were done in 12 wells of 96-well plates (in triplicate). In the second step, the effect of the IC50 combination of drugs with each other was investigated by the Fix ratio method on the culture medium. In this way, the percentage ratio of 0, 10, 30, 50, 70, 90, and 100 of one drug was combined with another drug and it was given an effect on the culture medium, and their synergistic and antagonistic effect was investigated by affecting the amount of parasitemia. Negative control consisted of 15 μL of freshly washed RBC plus 85 μL of CCM. […] Statistical analysis was done using GraphPad prism9 software and the results were analyzed with one-way ANOVA. […]

For `NC(=O)c1cccnc1` [NAM, nicotinamide], the “Percentage of drug hemolysis” value in the data set on red blood cells (drug concentration 0.1 µg/mL) worked out at 1%; with red blood cells (drug concentration 1 µg/mL), 2%; with red blood cells (drug concentration 10 µg/mL), 4%; in the data set with red blood cells (drug concentration 50 µg/mL), 6%; with red blood cells (drug concentration 100 µg/mL) it was 8%; in the data set with red blood cells (drug concentration 200 µg/mL), 9%. Further, in data set [1] (concentration 3000 µg/ml), the Growth inhibition rate was 94%.
Compound polyethylene glycol 600 [PEG] gave a Growth inhibition rate in data set [1] (concentration 10000 µg/ml) of 71%.
Turning to `CCN(CC)CCCC(C)Nc1ccnc2cc(Cl)ccc12` (stereo not drawn) [CQ, chloroquine diphosphate], the inhibition (usually how much of the control response was suppressed) at 8 µg/mL in data set [1] (Plasmodium falciparum, 3D7, 24 h, read-out: Growth inhibition rate) is 95%.
